Values quoted from earlier work, collected in US9023888B2, “Composition of monoterpenoids having bactericidal properties” (priority 2011, dated 2015).

Legend:
[1] = tested on: Staph. aureus; settings: broth dilution
[2] = tested on: E. coli; settings: for E. coli MBC (v/v %) / E. coli MBC ppm / E. coli MIC (v/v %) / E. coli MIC ppm: broth dilution

Row | Structure (SMILES) | Staph. aureus MBC (v/v %) [1] [v/v %] | Staph. aureus MBC ppm [1] | Staph. aureus MIC (v/v %) [1] [v/v %] | Staph. aureus MIC ppm [1] | antibacterial activity (summary of Table 2 in words) ([2]; E. coli and Staph. aureus data of Table 2) | E. coli MBC (v/v %) [2] [v/v %] | E. coli MBC ppm [2] | E. coli MIC (v/v %) [2] [v/v %] | E. coli MIC ppm [2]
1 | Cc1ccc(C(C)C)cc1 [p-cymene] | >8.0 | No level | >8.0 | No level | no effect at all | >8.0 | No level | >8.0 | No level
2 | CC1=CCC(C(C)(C)O)CC1 (centres unmarked) [∝-terpineol] | 0.25 | 2500 ppm | 0.25 | 2500 ppm | – | 0.06 | 600 ppm | 0.06 | 600 ppm
